Molecules are shown by their SMILES. Numbered stars: 1 amine (or outer) side, 2 acyl side, 3 side chain; on linkers, the order of the positions; unused ones are H or OH. Bridge positions count the residues as written; N and C are the ends. Square brackets hold non-standard residues; d marks the D form. Side chains are listed from the residue outwards. Peptide text beside a SMILES is read from it. I, II: the chains in the order shown. * marks the point of attachment. C18 diacid = O=C(O)CCCCCCCCCCCCCCCCC(=O)*; γGlu = O=C(O)[C@H](CCC(=O)[*:2])N[*:1]; Ac4c = NC1(C(=O)O)CCC1; AEEA = NCCOCCOCC(=O)O; Aib = CC(C)(N)C(=O)O

Here are results for four compounds from patent US9474790B2, “Stable, protracted GLP-1/glucagon receptor co-agonists for medical use” (Novo Nordisk A/S, priority 2013, dated 2016).

The target in one data set is T1, human GLP-1 receptor (Homo sapiens, UniProt P43220).
T1 construct: expressed in transfected cells; host or cells: BHK cells (parent BHKTS13), clone FCW467-12A/KZ10-1, with CRE luciferase
T1 sequence (P43220 24-463): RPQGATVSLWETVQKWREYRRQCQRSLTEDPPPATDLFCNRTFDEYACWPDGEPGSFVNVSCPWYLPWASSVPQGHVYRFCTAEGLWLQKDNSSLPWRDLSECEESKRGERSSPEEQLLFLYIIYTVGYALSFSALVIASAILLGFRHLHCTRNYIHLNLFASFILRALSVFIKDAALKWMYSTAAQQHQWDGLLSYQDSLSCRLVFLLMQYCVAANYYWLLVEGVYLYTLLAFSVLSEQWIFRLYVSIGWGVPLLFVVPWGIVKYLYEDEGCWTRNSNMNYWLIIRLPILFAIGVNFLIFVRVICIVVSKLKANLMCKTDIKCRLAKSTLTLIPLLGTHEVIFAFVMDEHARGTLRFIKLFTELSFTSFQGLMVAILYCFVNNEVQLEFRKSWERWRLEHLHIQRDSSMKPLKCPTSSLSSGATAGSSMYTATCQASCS
In words: GLP-1 receptor binding, 125I-GLP-1 displacement SPA on isolated membranes. Particulars: displacement of 125I-GLP-1 from membranes; read-out: IC50 GLP-1R. The procedure, abridged:
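SPA displacement of 125I-GLP-1(7-36)NH2 from membranes of BHK cells expressing human GLP-1 receptor, with WGA beads, in 50 mM HEPES, 5 mM EGTA, 5 mM MgCl2, 0.005% Tween 20, pH 7.4. Incubated 2 h at 30°C; IC50 by non-linear regression, run at ≤0.001% or 2.0% final serum albumin.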
For orientation: Displacement assays read how much labelled ligand stays bound in the presence of the test substance.

A short description of data set [1]: Chemical stability assessment by RP-UPLC. It is filed as physicochemical. Particulars: 333 μM, 8 mM phosphate buffer pH 7.3, 37° C. vs 5° C. The procedure, abridged:
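Purity loss = (purity after 14 days at 5° C. minus that at 37° C.) relative to the 5° C. value, purity being main-peak area % by RP-UPLC with UV at 215 nm. Samples were 333 μM in 8 mM phosphate, pH 7.3; gradient adjusted for outlying retention times.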

Turning to `CC(C)C[C@H](NC(=O)[C@H](Cc1ccc(O)cc1)NC(=O)[C@H](CCCCN)NC(=O)[C@H](CO)NC(=O)[C@H](CC(C)C)NC(=O)[C@H](CC(=O)O)NC(=O)[C@H](CO)NC(=O)[C@@H](NC(=O)[C@H](Cc1ccccc1)NC(=O)[C@@H](NC(=O)CNC(=O)[C@H](Cc1c[nH]cn1)NC(=O)C(C)(C)NC(=O)[C@@H](N)Cc1c[nH]cn1)[C@@H](C)O)[C@@H](C)O)C(=O)N[C@@H](CCC(=O)O)C(=O)N[C@@H](CO)C(=O)N[C@@H](CCCCN)C(=O)N[C@@H](CCCNC(=N)N)C(=O)N[C@@H](C)C(=O)N[C@@H](CCCNC(=N)N)C(=O)N[C@@H](CCC(=O)O)C(=O)N[C@@H](Cc1ccccc1)C(=O)N[C@H](C(=O)N[C@@H](CCC(N)=O)C(=O)N[C@@H](Cc1c[nH]c2ccccc12)C(=O)N[C@@H](CC(C)C)C(=O)N[C@@H](CC(C)C)C(=O)N[C@@H](CCCCNC(=O)CC[C@H](NC(=O)CC[C@H](NC(=O)CC[C@H](NC(=O)CCCCCCCCCCCCCCCCC(=O)O)C(=O)O)C(=O)O)C(=O)O)C(=O)N[C@H](C(N)=O)[C@@H](C)O)C(C)C` [Example 34, N^ε28-[(4S)-4-carboxy-4-[[(4S)-4-carboxy-4-[[(4S)-4-carboxy-4-(17-carboxyheptadecanoylamino)butanoyl]amino]butanoyl]amino]butanoyl]-[Aib2,His3,Leu10,Glu15,Lys17,Arg20,Glu21,Leu27,Lys28]-Glucagon amide] (H-H[Aib]HGTFTSDLSKYLESKRAREFVQWLLK([γGlu-γGlu-γGlu-C18 diacid])T-NH2; N-terminus assumed), the IC50 on human GLP-1 receptor was 0.2 nM. Further, the “Purity loss; 14 days at 37° C.” value in data set [1] stood at 5%.

As to `CC(C)C[C@H](NC(=O)[C@H](Cc1ccc(O)cc1)NC(=O)[C@H](CCCCN)NC(=O)[C@H](CO)NC(=O)[C@H](CC(C)C)NC(=O)[C@H](CC(=O)O)NC(=O)[C@H](CO)NC(=O)[C@@H](NC(=O)[C@H](Cc1ccccc1)NC(=O)[C@@H](NC(=O)CNC(=O)[C@H](CCC(N)=O)NC(=O)C1(NC(=O)[C@@H](N)Cc2c[nH]cn2)CCC1)[C@@H](C)O)[C@@H](C)O)C(=O)N[C@@H](CCC(=O)O)C(=O)N[C@@H](CO)C(=O)N[C@@H](CCCCN)C(=O)N[C@@H](CCCNC(=N)N)C(=O)N[C@@H](C)C(=O)N[C@@H](CCCNC(=N)N)C(=O)N[C@@H](CCC(=O)O)C(=O)N[C@@H](Cc1ccccc1)C(=O)N[C@H](C(=O)N[C@@H](CCC(N)=O)C(=O)N[C@@H](Cc1c[nH]c2ccccc12)C(=O)N[C@@H](CC(C)C)C(=O)N[C@@H](CC(C)C)C(=O)N[C@@H](CCCCNC(=O)CNC(=O)[C@H](CO)NC(=O)[C@H](CCC(=O)O)NC(=O)CNC(=O)[C@H](CO)NC(=O)CC[C@H](NC(=O)CC[C@H](NC(=O)CCCCCCCCCCCCCCCCC(=O)O)C(=O)O)C(=O)O)C(=O)N[C@H](C(N)=O)[C@@H](C)O)C(C)C` [Example 36, N^ε28-[2-[[(2S)-2-[[(2S)-4-carboxy-2-[[2-[[(2S)-2-[[(4S)-4-carboxy-4-[[(4S)-4-carboxy-4-(17-carboxyheptadecanoylamino)butanoyl]amino]butanoyl]amino]-3-hydroxypropanoyl]amino]acetyl]amino]butanoyl]amino]-3-hydroxypropanoyl]amino]acetyl]-[Acb2,Leu10,Glu15,Lys17, Arg20,Glu21,Leu27,Lys28]-Glucagon amide] (I: H-H[Ac4c]QGTFTSDLSKYLESKRAREFVQWLLKT-NH2 / II: {C18 diacid-γGlu-γGlu}-SGESG; amide I:28-II:C; N-terminus assumed), the IC50 at human GLP-1 receptor was 0.2 nM. Moreover, in data set [1], the “Purity loss; 14 days at 37° C.” value came out at 2%.

Take `CC(C)C[C@H](NC(=O)[C@H](Cc1ccc(O)cc1)NC(=O)[C@H](CCCCN)NC(=O)[C@H](CO)NC(=O)[C@H](CC(C)C)NC(=O)[C@H](CC(=O)O)NC(=O)[C@H](CO)NC(=O)[C@@H](NC(=O)[C@H](Cc1ccccc1)NC(=O)[C@@H](NC(=O)CNC(=O)[C@H](CCC(N)=O)NC(=O)C(C)(C)NC(=O)[C@@H](N)Cc1c[nH]cn1)[C@@H](C)O)[C@@H](C)O)C(=O)N[C@@H](CC(=O)O)C(=O)N[C@@H](C)C(=O)N[C@@H](CCCNC(=N)N)C(=O)N[C@@H](CCCNC(=N)N)C(=O)N[C@@H](C)C(=O)N[C@@H](CCCNC(=N)N)C(=O)N[C@@H](CCC(=O)O)C(=O)N[C@@H](Cc1ccccc1)C(=O)N[C@H](C(=O)N[C@@H](CCC(N)=O)C(=O)N[C@@H](Cc1c[nH]c2ccccc12)C(=O)N[C@@H](CC(C)C)C(=O)N[C@@H](CC(C)C)C(=O)N[C@@H](CC(N)=O)C(=O)N[C@@H](CCCCNC(=O)CC[C@H](NC(=O)CC[C@H](NC(=O)COCCOCCNC(=O)CC[C@H](NC(=O)CCCCCCCCCCCCCCCCC(=O)O)C(=O)O)C(=O)O)C(=O)O)C(N)=O)C(C)C` [Example 39, N^ε29-[(4S)-4-carboxy-4-[[(4S)-4-carboxy-4-[[2-[2-[2-[[(4S)-4-carboxy-4-(17-carboxyheptadecanoylamino)butanoyl]amino]ethoxy]ethoxy]acetyl]amino]butanoyl]amino]butanoyl]-[Aib2,Leu10,Ala16,Arg20,Glu21,Leu27,Lys29]-Glucagon amide] (H-H[Aib]QGTFTSDLSKYLDARRAREFVQWLLNK([γGlu-γGlu-AEEA-γGlu-C18 diacid])-NH2; N-terminus assumed): the IC50 at human GLP-1 receptor is 0.3 nM. In addition, in data set [1], the “Purity loss; 14 days at 37° C.” value is listed as 3%.

For the compound `CC(C)C[C@H](NC(=O)[C@H](CC(C)C)NC(=O)[C@H](Cc1c[nH]c2ccccc12)NC(=O)[C@H](CCC(N)=O)NC(=O)[C@@H](NC(=O)[C@H](Cc1ccccc1)NC(=O)[C@H](CCC(=O)O)NC(=O)[C@H](CCCNC(=N)N)NC(=O)[C@H](C)NC(=O)[C@H](CCCNC(=N)N)NC(=O)[C@H](CCCNC(=N)N)NC(=O)[C@H](CO)NC(=O)[C@H](CCC(=O)O)NC(=O)[C@H](CC(C)C)NC(=O)[C@H](Cc1ccc(O)cc1)NC(=O)[C@H](CCCCN)NC(=O)[C@H](CO)NC(=O)[C@H](CC(C)C)NC(=O)[C@H](CC(=O)O)NC(=O)[C@H](CO)NC(=O)[C@@H](NC(=O)[C@H](Cc1ccccc1)NC(=O)[C@@H](NC(=O)CNC(=O)[C@H](CCC(N)=O)NC(=O)C(C)(C)NC(=O)[C@@H](N)Cc1c[nH]cn1)[C@@H](C)O)[C@@H](C)O)C(C)C)C(=O)N[C@@H](CC(N)=O)C(=O)N[C@@H](CCCCNC(=O)CC[C@H](NC(=O)CC[C@H](NC(=O)COCCOCCNC(=O)CC[C@H](NC(=O)CCCCCCCCCCCCCCCCC(=O)O)C(=O)O)C(=O)O)C(=O)O)C(N)=O` [Example 40, N^ε29-[(4S)-4-carboxy-4-[[(4S)-4-carboxy-4-[[2-[2-[2-[[(4S)-4-carboxy-4-(17-carboxyheptadecanoylamino)butanoyl]amino]ethoxy]ethoxy]acetyl]amino]butanoyl]amino]butanoyl]-[Aib2,Leu10,Glu15,Arg20,Glu21,Leu27,Lys29]-Glucagon amide] (H-H[Aib]QGTFTSDLSKYLESRRAREFVQWLLNK([γGlu-γGlu-AEEA-γGlu-C18 diacid])-NH2; N-terminus assumed), at human GLP-1 receptor, the IC50 came out at 0.4 nM. Besides, in data set [1], the “Purity loss; 14 days at 37° C.” value is 2%.

In general, IC50 refers to the concentration at which inhibition is half-maximal.
